Results on 15 compounds are retold here after ChEMBL document CHEMBL4265899, “Trisubstituted thiazoles as potent and selective inhibitors of Plasmodium falciparum protein kinase G (PfPKG)” (Bioorg Med Chem Lett, 2018).

One experiment has as its system Plasmodium falciparum. Put plainly: Antimalarial activity against Plasmodium falciparum after 48 hrs by microbeta scintillation counting-based [3H]-hypoxanthine incorporation assay. Type of experiment: functional, organism-based.
Experiment [1] addresses cGMP-dependent protein kinase (Plasmodium falciparum, UniProt W7JX98). Nature of the experiment: Inhibition of Plasmodium falciparum protein kinase G.
Experiment [2] deals with T1, Inhibitor of nuclear factor kappa-B kinase subunit beta (Homo sapiens) (UniProt O14920).
T1 sequence (whole entry): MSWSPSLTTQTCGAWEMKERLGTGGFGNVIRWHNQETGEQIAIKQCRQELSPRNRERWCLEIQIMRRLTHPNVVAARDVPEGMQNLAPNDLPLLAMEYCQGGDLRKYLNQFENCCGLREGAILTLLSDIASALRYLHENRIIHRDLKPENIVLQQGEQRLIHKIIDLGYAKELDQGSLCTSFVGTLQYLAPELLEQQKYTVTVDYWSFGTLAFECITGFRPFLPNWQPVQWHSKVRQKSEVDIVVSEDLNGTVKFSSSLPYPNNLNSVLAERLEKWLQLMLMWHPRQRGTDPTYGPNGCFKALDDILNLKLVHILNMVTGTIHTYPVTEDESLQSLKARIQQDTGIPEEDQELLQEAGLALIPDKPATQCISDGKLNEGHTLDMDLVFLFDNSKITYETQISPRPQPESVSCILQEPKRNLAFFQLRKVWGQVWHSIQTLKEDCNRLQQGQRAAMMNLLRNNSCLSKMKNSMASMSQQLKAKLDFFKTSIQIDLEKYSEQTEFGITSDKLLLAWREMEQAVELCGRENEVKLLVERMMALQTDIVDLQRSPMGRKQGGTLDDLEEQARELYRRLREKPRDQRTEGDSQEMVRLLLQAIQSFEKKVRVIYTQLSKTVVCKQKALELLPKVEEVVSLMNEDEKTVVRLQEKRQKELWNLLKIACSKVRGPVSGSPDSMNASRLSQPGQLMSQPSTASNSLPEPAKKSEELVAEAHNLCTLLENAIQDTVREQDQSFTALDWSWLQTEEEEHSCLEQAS
The note with it: at 100 nM.
Description: Inhibition of human IKKb at 100 nM

The species named for the next experiment is Homo sapiens. The note with it: at 100 nM.
For experiment [3], the target named is Tyrosine-protein kinase Yes (Homo sapiens) (UniProt P07947). Nature of the experiment: Inhibition of human YES1 at 100 nM.
The target in experiment [4] is T2, Inhibitor of nuclear factor kappa-B kinase subunit epsilon (Homo sapiens) (UniProt Q14164).
T2 sequence (whole entry): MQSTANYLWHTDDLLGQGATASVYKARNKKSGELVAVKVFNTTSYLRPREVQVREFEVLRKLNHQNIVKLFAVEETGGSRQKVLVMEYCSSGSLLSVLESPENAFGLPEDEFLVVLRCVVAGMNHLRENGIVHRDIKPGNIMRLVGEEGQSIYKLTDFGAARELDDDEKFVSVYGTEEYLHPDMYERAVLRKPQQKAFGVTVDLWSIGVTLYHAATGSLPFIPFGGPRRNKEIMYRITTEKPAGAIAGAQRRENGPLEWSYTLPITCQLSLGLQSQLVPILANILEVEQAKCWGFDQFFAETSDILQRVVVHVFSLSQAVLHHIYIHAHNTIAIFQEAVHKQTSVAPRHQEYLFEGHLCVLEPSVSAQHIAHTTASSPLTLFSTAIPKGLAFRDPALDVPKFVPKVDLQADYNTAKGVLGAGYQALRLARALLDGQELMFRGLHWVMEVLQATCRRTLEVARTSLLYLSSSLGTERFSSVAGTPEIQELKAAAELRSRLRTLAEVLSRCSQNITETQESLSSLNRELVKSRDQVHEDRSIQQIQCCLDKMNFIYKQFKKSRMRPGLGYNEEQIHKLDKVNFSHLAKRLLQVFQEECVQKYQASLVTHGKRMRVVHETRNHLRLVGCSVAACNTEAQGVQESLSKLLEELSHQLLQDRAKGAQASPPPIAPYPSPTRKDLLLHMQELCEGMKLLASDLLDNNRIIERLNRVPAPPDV
As to conditions: at 100 nM.
Description: Inhibition of human IKKepsilon at 100 nM

Experiment [5] concerns the target Tyrosine-protein kinase Lck (Homo sapiens) (UniProt P06239). Put plainly: Inhibition of human LCK at 100 nM.
The target in experiment [6] is Casein kinase I isoform alpha (Homo sapiens) (UniProt P48729). Nature of the experiment: Inhibition of human CK1 at 100 nM.
Experiment [7] has as its target Misshapen-like kinase 1 (Homo sapiens) (UniProt Q8N4C8). Put plainly: Inhibition of human MINK1 at 100 nM.
The target of experiment [8] is T3, Serine/threonine-protein kinase D1 (Homo sapiens) (UniProt Q15139).
T3 sequence (whole entry): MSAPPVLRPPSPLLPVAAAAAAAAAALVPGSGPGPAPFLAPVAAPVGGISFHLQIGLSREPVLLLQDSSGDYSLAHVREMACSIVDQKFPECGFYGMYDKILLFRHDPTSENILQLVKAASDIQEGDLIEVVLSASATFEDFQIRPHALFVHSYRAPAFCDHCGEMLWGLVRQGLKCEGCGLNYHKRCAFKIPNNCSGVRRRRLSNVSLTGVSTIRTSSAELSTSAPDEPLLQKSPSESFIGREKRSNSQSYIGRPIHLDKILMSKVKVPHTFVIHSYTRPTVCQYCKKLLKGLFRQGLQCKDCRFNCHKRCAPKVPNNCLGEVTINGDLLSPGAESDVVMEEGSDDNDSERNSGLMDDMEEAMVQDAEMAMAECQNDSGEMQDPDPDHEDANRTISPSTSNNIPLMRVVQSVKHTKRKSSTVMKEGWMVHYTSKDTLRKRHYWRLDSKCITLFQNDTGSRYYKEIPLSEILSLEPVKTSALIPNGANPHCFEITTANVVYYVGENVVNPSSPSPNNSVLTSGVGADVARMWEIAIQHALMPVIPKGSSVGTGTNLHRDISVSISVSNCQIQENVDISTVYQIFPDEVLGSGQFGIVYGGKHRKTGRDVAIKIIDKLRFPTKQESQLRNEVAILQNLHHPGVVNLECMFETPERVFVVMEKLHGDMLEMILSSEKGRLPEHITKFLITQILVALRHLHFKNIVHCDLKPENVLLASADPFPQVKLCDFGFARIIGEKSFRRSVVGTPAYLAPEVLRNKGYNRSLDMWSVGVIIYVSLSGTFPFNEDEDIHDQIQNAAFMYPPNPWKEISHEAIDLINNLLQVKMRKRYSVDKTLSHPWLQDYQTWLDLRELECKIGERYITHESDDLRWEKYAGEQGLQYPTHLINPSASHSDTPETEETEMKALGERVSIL
Put plainly: Inhibition of human PKD1 at 100 nM.

For experiment [9], the target named is Receptor tyrosine-protein kinase erbB-4 (Homo sapiens) (UniProt Q15303). Nature of the experiment: Inhibition of human HER4 at 100 nM.

Molecules are shown by their SMILES.

cGMP-dependent protein kinase, sequence (W7JX98 whole entry): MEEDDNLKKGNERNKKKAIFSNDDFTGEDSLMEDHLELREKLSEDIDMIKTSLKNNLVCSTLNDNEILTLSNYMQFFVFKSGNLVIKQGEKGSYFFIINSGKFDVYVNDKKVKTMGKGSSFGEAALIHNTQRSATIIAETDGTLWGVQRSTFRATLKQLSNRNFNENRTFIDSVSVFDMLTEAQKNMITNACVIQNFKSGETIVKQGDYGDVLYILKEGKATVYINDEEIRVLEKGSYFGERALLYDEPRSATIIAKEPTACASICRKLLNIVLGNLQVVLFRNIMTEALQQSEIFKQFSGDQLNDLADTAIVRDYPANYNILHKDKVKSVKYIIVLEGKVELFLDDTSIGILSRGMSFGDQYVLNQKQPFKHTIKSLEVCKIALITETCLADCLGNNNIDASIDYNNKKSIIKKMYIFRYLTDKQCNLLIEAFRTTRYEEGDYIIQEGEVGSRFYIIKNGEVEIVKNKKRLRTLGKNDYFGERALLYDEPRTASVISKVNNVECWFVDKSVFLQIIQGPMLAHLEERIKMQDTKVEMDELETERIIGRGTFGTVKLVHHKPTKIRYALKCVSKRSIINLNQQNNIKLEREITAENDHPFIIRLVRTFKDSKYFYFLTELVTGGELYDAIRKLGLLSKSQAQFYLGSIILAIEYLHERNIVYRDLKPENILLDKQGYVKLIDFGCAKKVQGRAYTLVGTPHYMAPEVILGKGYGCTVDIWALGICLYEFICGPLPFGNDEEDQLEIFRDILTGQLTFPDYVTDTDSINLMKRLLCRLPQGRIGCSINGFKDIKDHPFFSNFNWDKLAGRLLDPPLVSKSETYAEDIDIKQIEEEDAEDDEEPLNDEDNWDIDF
Tyrosine-protein kinase Lck (Homo sapiens), sequence (P06239 2-509 limits assumed): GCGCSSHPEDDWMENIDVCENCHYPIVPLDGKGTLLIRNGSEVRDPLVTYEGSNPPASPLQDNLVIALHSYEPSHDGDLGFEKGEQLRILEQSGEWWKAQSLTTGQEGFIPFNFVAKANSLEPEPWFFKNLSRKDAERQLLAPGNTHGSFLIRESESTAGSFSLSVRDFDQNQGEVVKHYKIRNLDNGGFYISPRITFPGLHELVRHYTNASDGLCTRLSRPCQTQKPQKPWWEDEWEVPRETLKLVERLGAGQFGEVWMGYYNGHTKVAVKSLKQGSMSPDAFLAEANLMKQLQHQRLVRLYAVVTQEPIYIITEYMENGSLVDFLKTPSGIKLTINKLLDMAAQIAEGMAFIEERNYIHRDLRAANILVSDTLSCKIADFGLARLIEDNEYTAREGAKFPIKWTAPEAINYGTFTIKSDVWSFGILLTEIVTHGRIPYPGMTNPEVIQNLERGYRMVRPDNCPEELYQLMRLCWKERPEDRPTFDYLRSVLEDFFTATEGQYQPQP
Misshapen-like kinase 1 (Homo sapiens), sequence (Q8N4C8 whole entry, looked up): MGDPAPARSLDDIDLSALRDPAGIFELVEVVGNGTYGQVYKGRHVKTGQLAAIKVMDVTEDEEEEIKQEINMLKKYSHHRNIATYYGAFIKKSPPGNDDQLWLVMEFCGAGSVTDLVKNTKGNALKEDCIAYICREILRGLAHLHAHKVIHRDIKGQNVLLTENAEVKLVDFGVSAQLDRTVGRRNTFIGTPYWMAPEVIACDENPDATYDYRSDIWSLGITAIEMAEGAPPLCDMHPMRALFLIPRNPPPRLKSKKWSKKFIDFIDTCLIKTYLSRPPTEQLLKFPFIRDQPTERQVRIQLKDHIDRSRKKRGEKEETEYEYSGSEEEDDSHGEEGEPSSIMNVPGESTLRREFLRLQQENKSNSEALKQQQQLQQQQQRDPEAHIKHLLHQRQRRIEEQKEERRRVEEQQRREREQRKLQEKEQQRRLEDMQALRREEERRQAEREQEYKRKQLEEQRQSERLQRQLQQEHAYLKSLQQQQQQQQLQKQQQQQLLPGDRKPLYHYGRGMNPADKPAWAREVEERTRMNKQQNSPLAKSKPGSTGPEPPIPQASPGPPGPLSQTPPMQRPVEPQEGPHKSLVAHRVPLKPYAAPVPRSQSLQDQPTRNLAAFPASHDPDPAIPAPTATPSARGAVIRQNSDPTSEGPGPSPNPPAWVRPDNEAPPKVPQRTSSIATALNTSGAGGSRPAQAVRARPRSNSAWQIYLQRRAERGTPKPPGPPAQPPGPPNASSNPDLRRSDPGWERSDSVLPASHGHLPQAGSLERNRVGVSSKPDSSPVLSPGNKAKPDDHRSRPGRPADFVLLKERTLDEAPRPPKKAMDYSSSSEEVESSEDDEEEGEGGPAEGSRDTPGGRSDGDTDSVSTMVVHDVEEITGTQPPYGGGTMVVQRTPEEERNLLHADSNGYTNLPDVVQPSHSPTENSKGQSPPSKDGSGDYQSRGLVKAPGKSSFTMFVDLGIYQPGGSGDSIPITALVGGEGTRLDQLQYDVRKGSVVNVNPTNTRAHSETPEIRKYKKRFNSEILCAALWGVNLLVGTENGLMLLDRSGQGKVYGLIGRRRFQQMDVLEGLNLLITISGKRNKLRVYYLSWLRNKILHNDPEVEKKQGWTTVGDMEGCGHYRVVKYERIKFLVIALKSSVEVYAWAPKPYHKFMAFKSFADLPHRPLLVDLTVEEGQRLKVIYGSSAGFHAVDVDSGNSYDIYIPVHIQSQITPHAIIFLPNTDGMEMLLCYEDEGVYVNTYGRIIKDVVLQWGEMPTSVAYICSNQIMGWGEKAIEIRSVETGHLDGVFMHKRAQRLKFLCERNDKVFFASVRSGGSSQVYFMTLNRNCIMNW
Receptor tyrosine-protein kinase erbB-4 (Homo sapiens), sequence (Q15303 whole entry): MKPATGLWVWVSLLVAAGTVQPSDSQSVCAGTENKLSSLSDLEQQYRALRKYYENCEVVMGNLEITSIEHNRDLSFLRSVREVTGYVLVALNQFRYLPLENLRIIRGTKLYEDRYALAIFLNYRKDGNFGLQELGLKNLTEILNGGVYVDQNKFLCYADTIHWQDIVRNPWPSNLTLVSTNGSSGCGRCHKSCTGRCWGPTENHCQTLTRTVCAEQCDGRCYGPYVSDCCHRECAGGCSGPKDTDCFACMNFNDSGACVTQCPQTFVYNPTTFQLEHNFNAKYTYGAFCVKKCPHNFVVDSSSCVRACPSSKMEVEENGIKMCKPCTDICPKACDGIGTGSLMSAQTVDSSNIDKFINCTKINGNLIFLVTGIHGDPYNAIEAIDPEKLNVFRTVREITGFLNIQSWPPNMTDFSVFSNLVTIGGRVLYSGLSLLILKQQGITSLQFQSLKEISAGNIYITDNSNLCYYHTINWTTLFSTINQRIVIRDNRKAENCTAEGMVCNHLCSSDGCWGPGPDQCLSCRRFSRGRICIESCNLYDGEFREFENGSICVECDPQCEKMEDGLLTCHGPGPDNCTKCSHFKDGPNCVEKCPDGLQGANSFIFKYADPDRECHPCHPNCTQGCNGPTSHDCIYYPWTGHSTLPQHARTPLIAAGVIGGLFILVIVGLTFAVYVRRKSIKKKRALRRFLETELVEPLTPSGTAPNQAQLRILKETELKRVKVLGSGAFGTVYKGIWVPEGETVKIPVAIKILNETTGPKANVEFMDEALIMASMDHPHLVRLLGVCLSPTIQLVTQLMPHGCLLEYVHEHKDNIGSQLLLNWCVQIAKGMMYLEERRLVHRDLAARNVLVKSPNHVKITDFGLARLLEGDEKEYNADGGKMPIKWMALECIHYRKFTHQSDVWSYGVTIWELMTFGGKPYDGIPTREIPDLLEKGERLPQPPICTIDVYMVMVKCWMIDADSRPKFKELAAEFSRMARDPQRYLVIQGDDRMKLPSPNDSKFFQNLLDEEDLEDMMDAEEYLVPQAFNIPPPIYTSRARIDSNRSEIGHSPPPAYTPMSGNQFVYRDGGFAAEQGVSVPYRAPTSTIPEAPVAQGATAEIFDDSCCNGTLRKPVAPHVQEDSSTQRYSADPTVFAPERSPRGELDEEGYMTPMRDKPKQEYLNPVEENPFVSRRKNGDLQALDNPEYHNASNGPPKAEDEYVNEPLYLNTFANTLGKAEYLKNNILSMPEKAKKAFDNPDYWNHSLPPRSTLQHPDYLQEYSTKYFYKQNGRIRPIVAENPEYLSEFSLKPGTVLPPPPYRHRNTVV
Casein kinase I isoform alpha (Homo sapiens), sequence (P48729 2-337 limits assumed): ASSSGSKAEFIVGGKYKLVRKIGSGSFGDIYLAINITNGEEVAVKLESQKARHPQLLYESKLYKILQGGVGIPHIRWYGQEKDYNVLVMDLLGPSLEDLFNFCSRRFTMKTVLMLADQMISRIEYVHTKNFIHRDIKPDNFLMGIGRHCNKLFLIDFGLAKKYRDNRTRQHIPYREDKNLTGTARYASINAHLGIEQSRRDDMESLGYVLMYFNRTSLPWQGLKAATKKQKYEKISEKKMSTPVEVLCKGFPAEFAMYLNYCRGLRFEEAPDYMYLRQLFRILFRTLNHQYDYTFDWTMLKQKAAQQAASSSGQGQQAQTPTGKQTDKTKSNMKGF
Tyrosine-protein kinase Yes (Homo sapiens), sequence (P07947 2-543 limits assumed): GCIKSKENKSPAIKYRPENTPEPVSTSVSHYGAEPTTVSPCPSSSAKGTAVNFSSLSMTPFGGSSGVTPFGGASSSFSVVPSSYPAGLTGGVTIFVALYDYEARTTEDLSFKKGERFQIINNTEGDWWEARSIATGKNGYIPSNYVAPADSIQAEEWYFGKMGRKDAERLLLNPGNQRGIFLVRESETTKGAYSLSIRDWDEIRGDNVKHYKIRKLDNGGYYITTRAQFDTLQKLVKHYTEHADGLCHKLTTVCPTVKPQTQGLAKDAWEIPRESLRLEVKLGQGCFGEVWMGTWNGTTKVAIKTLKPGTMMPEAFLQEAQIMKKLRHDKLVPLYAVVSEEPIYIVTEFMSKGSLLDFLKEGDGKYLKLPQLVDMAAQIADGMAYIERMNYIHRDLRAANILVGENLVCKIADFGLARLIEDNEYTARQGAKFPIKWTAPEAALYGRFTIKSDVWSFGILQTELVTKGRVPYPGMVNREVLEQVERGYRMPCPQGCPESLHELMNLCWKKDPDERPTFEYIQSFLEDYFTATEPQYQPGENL

In the case of `CN(C)Cc1ccn2c(-c3ccnc(N)n3)c(-c3ccc(F)cc3)nc2c1`, the EC50 (as a rule, the midpoint of the concentration-response curve) in the experiment with Plasmodium falciparum amounted to 400 nM. In addition, the IC50 (commonly the concentration needed to halve the response being measured) in experiment [1] amounted to 3 nM.

In the case of `CNc1nccc(-c2sc(C3CCN(C)CC3)nc2-c2ccc(F)cc2)n1`, it took 1490 nM to reach a half-maximal effect with Plasmodium falciparum (EC50). Half-maximal inhibition in experiment [1] (IC50) was put at 15 nM.

Turning to `CN1CCC(c2nc(-c3cccc(S(C)(=O)=O)c3)c(-c3ccnc(N)n3)s2)CC1`, in the experiment with Plasmodium falciparum, it took 4570 nM to reach a half-maximal effect (EC50). The concentration for half-maximal inhibition (IC50) in experiment [1] came out at 33 nM.

`CN1CCC(c2nc(-c3cccc(S(C)(=O)=O)c3)c(-c3ccnc(NC4CC4)n3)s2)CC1` had an IC50 in experiment [1] of 17 nM.

In turn, `CN1CCC(c2nc(-c3ccc(F)cc3)c(-c3ccnc(N)n3)s2)CC1` showed an EC50 in the experiment with Plasmodium falciparum of 1810 nM. In addition, the IC50 in experiment [1] turned out to be 17 nM.

`CN1CCC(c2nc(C3CC3)c(-c3ccnc(Nc4ccc(N5CCNCC5)cc4)n3)s2)CC1` came in with an EC50 in the experiment with Plasmodium falciparum of 90 nM. Besides, half-maximal inhibition in experiment [1] (IC50) was put at 47 nM.

As to `CN1CCC(c2nc(-c3ccc(F)cc3)c(-c3ccnc(Nc4ccc(N5CCNCC5)cc4)n3)s2)CC1`, the inhibition (commonly the percentage by which the read-out fell short of the control) in experiment [2] was below 70%; in the experiment filed under Homo sapiens, below 70%; in [3], above 90%; in experiment [4] it was below 70%; in experiment [5], above 90%; in [6] it was above 90%. Besides, the inhibition in [7], in experiment [8] and in [9] was above 90% in each case.

Turning to `CN1CCC(c2cc(-c3ccncc3)c(-c3ccc(F)cc3)[nH]2)CC1`, the EC50 in the experiment on Plasmodium falciparum worked out at 450 nM. Besides, in experiment [1], it took 6 nM to reach half-maximal inhibition (IC50).

`Cc1nc(C2CCN(C)CC2)sc1-c1ccnc(Nc2ccc(N3CCNCC3)cc2)n1` showed a half-inhibitory concentration (IC50) in experiment [1] of 149 nM.

As to `Fc1ccc(-c2nc(C3CCNCC3)sc2-c2ccnc(Nc3ccc(N4CCNCC4)cc3)n2)cc1`, the EC50 with Plasmodium falciparum turned out to be 73 nM. In experiment [1], this compound showed an IC50 of 0.5 nM.

As to `CN1CCC(c2nc(-c3cccc(S(C)(=O)=O)c3)c(-c3ccnc(NC4CCOCC4)n3)s2)CC1`, in the experiment with Plasmodium falciparum, the EC50 was found to be 1560 nM. Inhibition in experiment [1] was half-maximal at 9 nM (IC50).

The compound `CN1CCC(c2nc(-c3ccc(F)cc3)c(-c3ccnc(Nc4ccc(C5CCNCC5)cc4)n3)s2)CC1` yielded an EC50 with Plasmodium falciparum of 25 nM. Moreover, 0.3 nM corresponded to half-maximal inhibition in experiment [1] (IC50).

With `CN1CCC(c2nc(-c3ccc(F)cc3)c(-c3ccnc(Nc4ccc(N5CCN(C)CC5)cc4)n3)s2)CC1`, the EC50 in the experiment with Plasmodium falciparum came to 155 nM. Further, in [1], the IC50 is 1 nM.

The compound `CN1CCC(c2nc(-c3cccc(S(C)(=O)=O)c3)c(-c3ccnc(NCC4CC4)n3)s2)CC1` showed an EC50 in the experiment on Plasmodium falciparum of 1330 nM. The compound also had an IC50 in [1] of 6 nM.

Turning to `CN1CCC(c2nc(-c3ccc(F)cc3)c(-c3ccncn3)s2)C1` (stereo not given), the EC50 with Plasmodium falciparum turned out to be 144 nM. Also, the IC50 in experiment [1] stood at 6 nM.
